Like-named read-outs stand apart in the source and are kept apart here.
Tests used:
[1] = test system: human HT29 colon cancer cells; assay: CellTiter-Blue fluorescence cell viability assay; conditions: for IC50: read-out: IC50 value, cell viability, from dose-response curves
Protocol: (§9) Colon cancer HT29 cells were treated with either FOLFOX alone (green triangles), 5-FU alone (orange triangles), oxaliplatin alone (black squares), Foxy-5 alone (red squares) or FOLFOX+Foxy-5 (blue circles). The cytotoxic effects of these different treatments were evaluated by CellTiter-Blue™ fluorescence cell viability assay. […] The data are normalized and shown as means±SEM.

[2] = test system: HT29 colon cancer cells; assay: HT29 colon cancer xenograft in nude mice, tumours analysed by IHC and mRNA; assay type: in vivo; conditions: HT29-derived tumours
From the text: (§1) Representative photos from saline- and Foxy-5-treated animals are presented. From each such slide, 4 boxes were put on top of the stained tissue and for each of them the ALDH staining was scored as a percentage of stained cells multiplied by the staining intensity. The following score was used for percentage stained cells; 0 for positive stained cells <5%, 1 for positive cells 5-25%, 2 for positive cells 26-50%, 3 for positive cells 51-75%, 4 for positive cells >75%.
(§2) For staining intensities, the stained areas were scored as; 1 for weak staining, 2 for medium staining and 3 for strong staining. For each box a final score was obtained by multiplying the score for percentage of positively stained cells with the score for staining intensity. Finally, a mean value was obtained from the 4 boxes for each tumour. The same scoring protocol was then used for all IHC analyses presented in the present study.
as §1, with “Representative images” for “Representative photos”, “from vehicle (saline)” for “from saline-”, “slide, 6” for “slide, 4”, “were randomly” for “were”
as §2, with “6” for “4”, “tumour sample.” for “tumour.”
(§3) Tumours from two different human colon cancer cell types HT29 and Caco-2 cells were examined by immunohistochemistry (IHC) and mRNA (see FIG. 1).
(§4) On day 0: Subcutaneous injections of HT29 or Caco-2 colon cancer cells in nude mice were done.
(§5) On day 7 after tumours have been established in the mice, intraperitoneal (I.P) injections of vehicle (saline) alone (gr 1) or Foxy-5 (2 μg/g; gr 2) were done.
(§6) On days 9-23 tumour growth and animal weight was monitored—then +8 I.P. injections every 2nd day of either vehicle alone (gr 1) or Foxy-5 (2 μg/g; gr 2).
(§7) On day 24 the two types of tumours (Caco-2 and HT29 derived) (divided in two parts of which one was fixed and the other frozen at −80° C.) were analyzed by IHC for their protein expression of COX-2, 15PGDH, β-catenin, Ascl2, ALDH and Dckl1 and for their mRNA content of ALDH and Dckl1 (ALDH is a general stem cell marker and Dck1 is a specific marker for colon CSCs).

[3] = test system: human HT29 colon cancer cells
Protocol: as §9

[4] = test system: colon cancer cells; assay: In vitro treatment of colon cancer cells (Mehdawi et al., 2016); assay type: cell-based; conditions: in vitro conditions, inventors' own observation
[5] = test system: colon cancer xenograph tissue; assay: Colon cancer xenograft tissue (cell line not stated), IHC of COX-2 and 15-PGDH; assay type: in vivo, nude mice; conditions: Foxy-5 2 μg/g I.P., vs vehicle
From the text: The IHC stainings were scored exactly as described in detail for the IHC staining in FIG. 1.
(§8) Representative images from vehicle- and Foxy-5-treated animals are presented. From each such slide 6 boxes were put on top of the stained tissue and for each of them the Cox-2 staining was scored as a percentage of stained cells multiplied by the staining intensity as described in detail for FIG. 2.
as §8, with “15-PGDH” for “Cox-2”
On day 0: Subcutaneous injections of HT29 or Caco-2 colon cancer cells in nude mice were done. […]
as §6, §7

[6] = test system: colon cancer cells; conditions: in vitro; cited from earlier work
[7] = test system: Caco-2 colon cancer cells; assay: Caco-2 colon cancer xenograft in nude mice, tumours analysed by IHC and mRNA; assay type: in vivo; conditions: Caco-2-derived tumours
From the text: as §1, §2
as §1, with “Representative images” for “Representative photos”, “from vehicle (saline)” for “from saline-”, “slide, 6” for “slide, 4”, “were randomly” for “were”
as §2, with “6” for “4”, “tumour sample.” for “tumour.”
as §3, §4, §5, §6, §7

[8] = Foxy-5 2 μg/g I.P. every 2nd day, day 7-23, IHC and mRNA, day 24, vs vehicle
[9] = Foxy-5 2 μg/g I.P., vs vehicle-treated mice

Molecule `O=C1[O][Pt]2([NH][C@@H]3CCCC[C@H]3[NH]2)[O]C1=O` [oxaliplatin] has an IC50 [1] of 3.4 µM.

For `O=c1[nH]cc(F)c(=O)[nH]1` [5-FU, 5-fluorouracil], the IC50 [1] was 6.8 µM.

For MDGCEL [Foxy-5], the “active β-catenin nuclei expression” value ([2]; IHC, Foxy-5 2 μg/g I.P.) was “Decreased”, the “β-catenin downstream target Ascl2 protein expression” value ([2]; IHC, Foxy-5 2 μg/g I.P.) was “reductions” and the “expression of the two stem cell biomarkers (ALDH and Dck1)” value [2, 8] was “significantly reduce”. The tumour volume [2, 9] was “reductions”, the “cytotoxic effect on cell viability” value [3] was “no cytotoxic effect” and the “number of CSCs” value [4] was “not been able to detect any reduction”. The “PGE2 degrading enzyme 15-PGDH expression” value [5] was “increase”, the “expression of the PGE2 generating enzyme COX-2” value [5] was “decrease” and the “expression of the PGE2 and lipoxin degrading enzyme 15-PGDH” value [6] was “up-regulate”. The “expression of the PGE2 producing enzyme COX-2” value [6] was “decrease”, the β-catenin signalling [6] was “reduction” and the “effect on the inhibitory effect of FOLFOX on cell viability” value ([1]; combined with FOLFOX) was “do not enhance or reduce”. The “IC50 value, cell viability” value ([1]; from dose-response curves) was “no IC50 value could be determined”, the “active β-catenin nuclei expression” value ([7]; IHC, Foxy-5 2 μg/g I.P.) was “Decreased” and the “β-catenin downstream target Ascl2 protein expression” value ([7]; IHC, Foxy-5 2 μg/g I.P.) was “reductions”. The “expression of the two stem cell biomarkers (ALDH and Dck1)” value [7, 8] was “significantly reduce” and the tumour volume [7, 9] was “reductions”.

For `Nc1nc2c(c(=O)[nH]1)N(C=O)C(CNc1ccc(C(=O)N[C@@H](CCC(=O)O)C(=O)O)cc1)CN2` (stereo partly drawn) [folinic acid], the “cytotoxic effect on cell viability” value ([1]; monotherapy) was “no cytotoxic effect”.

B1: WNT5A protein: full length WNT5A protein according to SEQ ID NO: 1, a non-canonical Wnt ligand (protein, listed as Homo sapiens)
chain: MKKSIGILSPGVALGMAGSAMSSKFFLVALAIFFSFAQVVIEANSWWSLGMNNPVQMSEVYIIGAQPLCSQLAGLSQGQKKLCHLYQDHMQYIGEGAKTGIKECQYQFRHRRWNCSTVDNTSVFGRVMQIGSRETAFTYAVSAAGVVNAMSRACREGELSTCGCSRAARPKDLPRDWLWGGCGDNIDYGYRFAKEFVDARERERIHAKGSYESARILMNLHNNEAGRRTVYNLADVACKCHGVSGSCSLKTCWLQLADFRKVGDALKEKYDSAAAMRLNSRGKLVQVNSRFNSPTTQDLVYIDPSPDYCVRNESTGSLGTQGRLCNKTSEGMDGCELMCCGRGYDQFKTVQTERCHCKFHWCCYVKCKKCTEIVDQFVCK
For B1, the “number of CSCs” value [4] is given as “not been able to detect any reduction”, the “expression of the PGE2 and lipoxin degrading enzyme 15-PGDH” value [6] is given as “up-regulate” and the “expression of the PGE2 producing enzyme COX-2” value [6] is given as “decrease”. The β-catenin signalling [6] was “reduction”.
